The nature of series [1]: in vitro growth-inhibiting assay of rat L6 cells. The series is classed as cell-based. The following applies: rat; Table 8; read-out: 50% growth-inhibiting concentration (nM) cytotoxicity L6. As for the experimental part:
Rat L6 cell (rat skeletal myoblast cell) was cultured in RPMI-1640 culture medium supplemented with 1% of L-glutamine (200 mM) and fetal calf serum (10%) under 5% CO2 concentration at 37° C. A test sample was prepared by dissolving the test compounds according to the present invention and a positive control drug in DMSO to a predetermined concentration. After pre-culture had been finished, the culture medium containing the cells in a logarithmic phase was placed into each well of a 96-well culture plate, and the test sample comprising the predetermined amount of the test compound, and DMSO without the test compound were added to the wells in duplicate.
(§1) After incubation of the culture plate for 72 hours in an incubator, a growth-inhibiting activity was assayed as follows. Alamar Blue aqueous solution (10 μL) was added to each well followed by a further two-hour culture. The culture plate was then attached to a fluorescence micro titer plate reader (Spectramax Gemeni XS; U.S. Molecular Device Co.), and the intensity of fluorescence at 588 nm was detected with an excitation wave length of 536 nm. A residual ratio of L6 cells was calculated with respect to a group treated with the test sample and a control group. A growth-inhibiting ratio for L6 cells was then calculated from the resulting residual ratio in accordance with the following equation to determine 50% growth-inhibiting concentration (EC50).
Growth-inhibiting ratio (%)=[1−(C−A)/(B−A)]×100 • A: Initial number of cells; • B: Number of the cells in the control after 3 days; and • C: Number of the cells treated with the test sample after 3 days Determination of Pharmaceutical effect for Chloroquine-Resistant Malaria

In series [2] the test system is Trypanosoma brucei rhodensiense (STIB 900 strain). The series is described as follows: in vitro growth-inhibiting screening assay, protozoa of African trypanosomiasis. The series is classed as cell-based. On the procedure:
This test was done using a trypomastigote of the protozoa of Trypanosoma brucei rhodensiense (STIB 900 strain) ranging in blood stream. MEM medium sterilized by filtration was supplemented with 25 mM of N-2-hydroxyethylpiperazine-2-ethanesulfonic acid (HEPES), 1 g/L of glucose, 1% of MEM non-essential amino acids, 0.2 mM of 2-mercaptoethanol, 2 mM of sodium pyruvate, 1 mM of hypoxathine and 15% of heat-treated horse serum. The protozoa were cultured under CO2 concentration of 5%, at 37° C.
A test sample was prepared by dissolving the test compounds according to the present invention and a positive control drug (Melarsoprol) in DMSO to a predetermined concentration. Culture medium containing the protozoa of 8×10^3, and the test sample comprising the predetermined amount of the test compound, and DMSO without the test compound were added into each well of 96-well culture plate to a final volume of 100 μL in duplicate.
as §1, with “Co.),” for “Co.), and”, “with” for “with an”, “nm to calculate an infection” for “nm. A residual”, “the protozoa” for “L6 cells was calculated”, “ratio” for “ratio for L6 cells”, “infection” for “residual”
Growth-inhibiting ratio (%)=[1−(b−a)/(c−a)]×100 • a: Initial infection ratio; • b: Infection ratio of the test sample group; and • c: Infection ratio of the control group.
A selective toxicity coefficient, which is used as an index for the selective toxicity for the protozoa of African trypanosomiasis, was calculated by the following equation, and the pharmaceutical effect was determined.
Selective toxicity coefficient=(EC50 value of the test sample for rat L6 cell)/(EC50 value of the test sample for the protozoa of African typanosomiasis)

With `Nc1nc(N)nc(Nc2ccc([As]3SCC(CO)S3)cc2)n1` (stereo not drawn) [Melarsoprol, reference compound], the EC50 at 72 h in series [1] stood at 7800 nM. The same molecule showed a Selective toxicity in series [2] (EC50 rat L6 cell / EC50 protozoa of African trypanosomiasis) of 1300. Besides, the EC50 in series [2] (Trypanosoma brucei, STIB900, 72 h, read-out: 50% growth-inhibiting concentration (nM) Trypanosoma brucei rhod.) was 6 nM.

Values taken from patent US20090036437A1, “PHARMACEUTICAL COMPOSITION COMPRISING PHENOXAZINIUM COMPOUND AS AN ACTIVE INGREDIENT” (priority 2005, published 2009).
